From US20060223792A1, “Phenyl and pyridyl LTA4H modulators” (priority 2005, published 2006)
Like-named read-outs stand apart in the source and are kept apart here.

How the values were obtained:
[1] = test system: ex vivo stimulated LTB4 production; experiment: Murine arachidonic acid-induced inflammation model: ex vivo stimulated LTB4 production in blood; details: Mus musculus; 30 mg/kg oral gavage, female Balb/c mice; blood taken 3 h after arachidonic acid, stimulated ex vivo with A23187; read-out: % Inh. LTB4
Experimental: (§1) Murine Arachidonic Acid-Induced Inflammation Model
(§2) LTA4H inhibitor compounds of the present invention were dissolved in 20% cyclodextran/H2O at a concentration of 3 mg/mL. The solutions were administered by oral gavage to female Balb/c mice weighing approximately 20 grams each (0.2 mL per mouse, 30 mg of LTA4H inhibitor compound per kg). Sixty minutes after being administered an LTA4 inhibitor, each mouse received topical application of 20 μL of arachidonic acid (100 mg/mL in acetone) to the left ear and 20 μL of acetone only to the right ear. After 3 h, the mice were sacrificed, blood was withdrawn in heparinized syringes, and 8 mm ear biopsies were taken. Ear biopsies were weighed to determine edema and then frozen at −80° C. until needed for determination of neutrophil influx.
One hundred-microliter aliquots of heparinized blood were added to wells of a microtiter plate, along with equal volumes of RPMI-1640 medium, and calcium ionophore A23187 was added to each sample well (final concentration=[…]). The microtiter plate contents were incubated for 10 min at 37° C. in a humidified incubator. The reaction was terminated by centrifugation (833×g, 10 min at 4° C.). Supernatants were analyzed for LTB4 by a commercially available enzyme-linked immunoassay (Cayman Chemical Co.) in accordance with the manufacturer's instructions. The percent inhibition of ex vivo stimulated LTB4 production (% Inh. LTB4) was determined by comparison to animals treated identically except that the solution admininstered by oral gavage was devoid of inhibitor compound.

[2] = test system: neutrophil influx (myeloperoxidase, MPO); experiment: Murine arachidonic acid-induced inflammation model: neutrophil influx in ear (myeloperoxidase activity); assay type: in vivo, female Balb/c mice; details: Mus musculus, read-out: % Inh. MPO
Experimental: as §1, §2
Neutrophil influx was quantified by measuring the activity of myeloperoxidase (MPO), a neutrophil-specific enzyme. The ear biopsies were homogenized in 0.5 mL extraction buffer (0.3 M sucrose, 0.22% (w/v) hexadecyl trimethyl ammonium bromide (CTAB), and 2.5 mM citrate prepared from 0.5 M citrate stock solution (pH 5.0)). Debris was removed by centrifugation at 14000×g for 10 min. Aliquots of 10 μL of the resulting supernatant were added to wells of a microtiter plate, along with 90-μL aliquots of dilution buffer (10 mM citrate, 0.22% CTAB), followed by addition of 20 μL TMB liquid substrate system (Sigma Chemical Co.) to each sample well. The microtiter plate contents were held at rt for 1 h. The reaction was stopped by addition of 100 μL 1 M H2SO4 to each sample well, and the myeloperoxidase activity in each sample was determined from the absorbance at 405 nm. The background value from the right ear, treated only with acetone, was subtracted from that for the left ear, treated with arachidonic acid in acetone, for each animal. The percent inhibition of neutrophil influx (% lnh. MPO) by compounds of the invention was determined by comparison to animals treated identically, except that the solution administered by oral gavage was devoid of inhibitor compound.

[3] = biological target: T1, recombinant human LTA4 hydrolase (rhLTA4H) (Homo sapiens, UniProt P09960); experiment: Recombinant human LTA4 hydrolase assay for LTA4 hydrolase inhibitor activity; assay type: biochemical; details: recombinant human LTA4H, LTB4 quantified by enzyme-linked immunoassay; average of one to three determinations; read-out: IC50
T1 construct: made in house; host or cells: Spodoptera frugiperda (Sf-9) cells, baculovirus (pFastBac1)
T1 sequence (P09960 1-611): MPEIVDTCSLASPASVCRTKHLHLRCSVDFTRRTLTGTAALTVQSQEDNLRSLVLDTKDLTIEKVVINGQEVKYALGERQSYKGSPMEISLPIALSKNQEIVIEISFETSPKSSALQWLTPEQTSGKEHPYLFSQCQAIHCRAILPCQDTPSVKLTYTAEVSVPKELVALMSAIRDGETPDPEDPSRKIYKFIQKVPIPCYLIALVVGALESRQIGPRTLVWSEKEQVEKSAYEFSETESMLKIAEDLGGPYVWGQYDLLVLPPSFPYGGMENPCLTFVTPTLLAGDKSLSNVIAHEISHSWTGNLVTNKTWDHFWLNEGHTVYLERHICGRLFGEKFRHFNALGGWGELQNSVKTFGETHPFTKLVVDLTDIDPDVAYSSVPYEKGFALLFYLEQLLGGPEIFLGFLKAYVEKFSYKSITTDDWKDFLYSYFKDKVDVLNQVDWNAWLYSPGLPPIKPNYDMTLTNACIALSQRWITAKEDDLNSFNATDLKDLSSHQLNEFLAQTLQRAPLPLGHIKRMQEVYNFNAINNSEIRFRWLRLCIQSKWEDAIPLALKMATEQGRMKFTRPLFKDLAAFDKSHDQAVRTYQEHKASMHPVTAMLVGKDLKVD
In short: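 Sf-9-expressed rhLTA4H (36 ng) preincubated 10 min at rt with compound in 0.1 M potassium phosphate pH 7.4, 5 mg/mL fatty-acid-free BSA; 9 ng LTA4 free acid added, 10 min at rt in 225 μL. LTB4 measured by enzyme immunoassay; IC50 from 4-parameter fit, mean of one to three determinations.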

[4] = test system: ionophore-induced LTB4 production; details: oral administration; cited from earlier work
[5] = test system: ionophore-induced LTB4 production; details: oral administration; cited from earlier work; remark: listed apart in the source
colitis symptoms = details: eight weeks of treatment, cotton top tamarins; cited from earlier work

Compound	inhibition at 30 mg/kg [1] [%]	inhibition in vivo at 30 mg/kg ([2]; po, 3 h) [%]	IC50 [3] [nM]	inhibition in vivo at 30 mg/kg ([2]; 30 mg/kg oral gavage 60 min before topical arachidonic acid to ear, female Balb/c mice, ear biopsies after 3 h) [%]	inhibition of ionophore-induced LTB4 production in rat peritoneum in vivo [4]	inhibition of ionophore-induced LTB4 production in mouse blood ex vivo [5]	colitis symptoms (colitis symptoms)
CCCCN(CCCC)CCOc1ccc(OC(=O)Nc2ccccc2)cc1 [Example 48, Phenyl-carbamic acid 4-(2-dibutylamino-ethoxy)-phenyl ester]	69	66	9	–	–	–	–
O=C(Nc1ccccc1)Oc1ccc(CCN2CCCCC2)cc1 [Example 52, Phenyl-carbamic acid 4-(2-piperidin-1-yl-ethyl)-phenyl ester]	80	87	3	–	–	–	–
O=C(O)CCN(CCc1ccc(OCCc2ccccc2)cc1)C1CCCCC1 [Example 89, 3-{Cyclohexyl-[2-(4-phenethyloxy-phenyl)-ethyl]-amino}-propionic acid]	36	–	7	41	–	–	–
CN(CCCOc1ccc(Cc2ccccc2)cc1)CCC(=O)O.Cl [SC57461]	–	–	–	–	caused inhibition	caused inhibition	significantly improved colitis symptoms
